Results reported in US20020065259A1, “Glucocorticoid blocking agents for increasing blood-brain barrier permeability” (priority 2000, published 2002).
Like-named read-outs stand apart in the source and are kept apart here.

What was measured:
[1] = test system: BBB permeability; conditions: adrenalectomized rats with vehicle (placebo) pellets; haloperidol 1 mg/kg s.c. or clozapine 15 mg/kg s.c., 2 h before sacrifice
[2] = test system: BBB permeability; experiment: Example 2: mifepristone pellet in rats, brain haloperidol and clozapine levels and brain dopamine metabolites; format: in vivo
Description: Rats (male Sprague Dawley 175-200 grams) are maintained, 3 rats per cage, under controlled temperature and lighting (12 hours light/12 hours dark) with food and water ad libitum. […] Two hours prior to sacrifice the animals are injected with either haloperidol (1 mg/kg s.c; RBI Natick, Mass.) or an equivalent volume of vehicle (0.3% tartaric acid, pH 5.3) or with either clozapine (15 mg/kg s.c.; RBI, Natick, Mass.) or vehicle (0.9% saline plus 0.8% acetic acid). Animal sacrifice is by decapitation during the first four hours of the light cycle. Blood is collected and brains removed and frozen on dry ice for storage at −80° C. Frozen brains are sliced into 250 μm sections with a cryostat. The medial prefrontal cortex (AP 13.7 to 12.2 mm) is dissected with a scalpel, the striatum (AP 10.7 to 9.7 mm) is removed with stainless steel cannulae from frozen slices and the core and shell of the nucleus accumbens (AP 10.7 to 9.7 mm) is removed. Brain regions are dissected within 24-72 hours of slicing. […] Dopamine metabolites homovanillic acid (HVA) and dihydroxyphenylacetic acid (DOPAC) are measured in the brains of the experimental animals. […] Tissue pellets are dissolved in 1.0 N NaOH for protein determination (BioRad, Richmond, Calif.). Cortical supernatants are filtered through a 0.45 μm filter and 5-80 μl of supernatant is injected directly onto a C18 reverse phase analytical column (5 μm, 250×4.6 mm; Biophase ODS, BAS, West Lafayette, Ind.) protected by a precolumn cartridge (5 μm, 30×4.6 mm, BAS) as described with modification (Lindley et al. Proc. Soc. Exp. Biol. Med. 188:282-286 (1988)). DOPAC and HVA were detected using an electrochemical detector. For cortical regions, the conditioning electrode is set at +0.35 V and the dual analytical electrode is set at +0.02 V and −0.35 V, respectively (ESA, Bedford, Mass.). For other regions a single analytical electrode set at +0.72 V is used (BAS, West Lafayette, Ind.). Brain clozapine levels are analyzed by National Medical Services, Inc. (Willow Grove, PN) while brain and plasma haloperidol and reduced haloperidol and plasma clozapine levels are analyzed by Analytical Psychopharmacology Laboratories (Nathan Kline Institute, Orangeburg, N.Y.), both by gas chromatography.

[3] = test system: BBB permeability; experiment: Example 5: mifepristone pellet in rats, delivery of methotrexate to brain; format: in vivo; conditions: mifepristone 200 mg 10 day sustained-release pellet, methotrexate 0.5 mg i.v. 2 h before sacrifice
Description: Rats (male Sprague Dawley 175-200 grams) are maintained, 3 rats per cage, under controlled temperature and lighting (12 hours light/12 hours dark) with food and water ad libitum. […] Two hours prior to sacrifice the animals are injected with either methotrexate (0.5 mg i.v; Sigma Chemical Co., (800)325-3010) or an equivalent volume of vehicle (saline, pH 9). Animal sacrifice is by decapitation during the first four hours of the light cycle. Blood is collected and brains removed and frozen on dry ice for storage at −80° C. Methotrexate concentration is measured in the brains of the experimental animals. The methotrexate concentration is greater in the brains of mifepristone-treated animals than in placebo-treated animals.

[4] = test system: BBB permeability; experiment: Example 4: mifepristone pellet in rats, delivery of ampicillin to brain; format: in vivo; conditions: mifepristone 200 mg 10-day sustained release pellet, ampicillin 1.5 mg i.v. 2 h before sacrifice
Description: Animal sacrifice is by decapitation during the first four hours of the light cycle. Blood is collected and brains removed and frozen on dry ice for storage at −80° C. Ampicillin concentration is measured in the brains of the experimental animals.

[5] = test system: BBB permeability; experiment: Example 6: mifepristone s.c. injection in rats, delivery of adriamycin to brain; format: in vivo; conditions: mifepristone 2 mg s.c. 4 h before sacrifice, adriamycin 0.5 mg i.v. 2 h before sacrifice
Description: Animal sacrifice is by decapitation during the first four hours of the light cycle. Blood is collected and brains removed and frozen on dry ice for storage at −80° C. Adriamycin concentration is measured in the brains of the experimental animals.

[6] = test system: BBB permeability; experiment: Example 3: mifepristone pellet in rats, delivery of Amphotericin B to brain; format: in vivo; conditions: mifepristone 200 mg 10-day sustained release pellet, Amphotericin B 0.1 mg i.v. 2 h before sacrifice
Description: Rats (male Sprague Dawley 175-200 grams) are maintained, 3 rats per cage, under controlled temperature and lighting (12 hours light/12 hours dark) with food and water ad libitum. […] Two hours prior to sacrifice the animals are injected with either Amphotericin B (0.1 mg i.v.; Sigma Chemical Co., (800) 325-3010) or an equivalent volume of vehicle (0.1% DMSO in saline, pH 11). Animal sacrifice is by decapitation during the first four hours of the light cycle. Blood is collected and brains removed and frozen on dry ice for storage at −80° C. Amphotericin B concentration is measured in the brains of the experimental animals. The Amphotericin B concentration is greater in the brains of mifepristone-treated animals than in placebo-treated animals.

[7] = rats, mifepristone 200 mg 10-day sustained-release pellet, clozapine 15 mg/kg s.c.
[8] = rats, mifepristone 200 mg 10-day sustained-release pellet, haloperidol 1 mg/kg s.c.

| Structure (SMILES) | measured levels of HVA and DOPAC in the brain [1] | measured levels of HVA and DOPAC in the brain ([2]; rats with placebo pellet, haloperidol 1 mg/kg s.c. or clozapine 15 mg/kg s.c., 2 h before sacrifice) | methotrexate concentration in the brain, mifepristone-treated vs placebo [3] | brain concentration of clozapine, mifepristone-treated vs placebo [2, 7] | increase in dopamine metabolite levels following clozapine treatment, mifepristone-treated vs placebo [2, 7] | brain concentration of haloperidol, mifepristone-treated vs placebo [2, 8] | increase in dopamine metabolite levels following haloperidol treatment, mifepristone-treated vs placebo [2, 8] | ampicillin concentration in the brain, mifepristone-treated vs placebo [4] | adriamycin concentration in the brain, mifepristone-treated vs placebo [5] | Amphotericin B concentration in the brain, mifepristone-treated vs placebo [6] |
| --- | --- | --- | --- | --- | --- | --- | --- | --- | --- | --- |
| O=C(CCCN1CCC(O)(c2ccc(Cl)cc2)CC1)c1ccc(F)cc1 [haloperidol] | elevated | elevated | – | – | – | – | – | – | – | – |
| CC#C[C@]1(O)CC[C@H]2[C@@H]3CCC4=CC(=O)CCC4=C3[C@@H](c3ccc(N(C)C)cc3)C[C@@]21C [mifepristone, (11β,17β)-11-[4-(dimethylamino)phenyl]-17-hydroxy-17-(1-propynyl)estra-4,9-dien-3-one] | – | – | greater | greater | greater | greater | greater | greater | greater | greater |
